Reference: patent US11021448B2, “1,3-dihydro-1,4-benzodiazepine-2-thiones for the treatment of CNS related diseases” (priority 2016, dated 2021)
Like-named read-outs stand apart in the source and are kept apart here.

Target: T1, hM1 (Homo sapiens, UniProt P11229)
T1 construct: expressed in transfected cells; host or cells: CHO
T1 sequence (P11229 1-460): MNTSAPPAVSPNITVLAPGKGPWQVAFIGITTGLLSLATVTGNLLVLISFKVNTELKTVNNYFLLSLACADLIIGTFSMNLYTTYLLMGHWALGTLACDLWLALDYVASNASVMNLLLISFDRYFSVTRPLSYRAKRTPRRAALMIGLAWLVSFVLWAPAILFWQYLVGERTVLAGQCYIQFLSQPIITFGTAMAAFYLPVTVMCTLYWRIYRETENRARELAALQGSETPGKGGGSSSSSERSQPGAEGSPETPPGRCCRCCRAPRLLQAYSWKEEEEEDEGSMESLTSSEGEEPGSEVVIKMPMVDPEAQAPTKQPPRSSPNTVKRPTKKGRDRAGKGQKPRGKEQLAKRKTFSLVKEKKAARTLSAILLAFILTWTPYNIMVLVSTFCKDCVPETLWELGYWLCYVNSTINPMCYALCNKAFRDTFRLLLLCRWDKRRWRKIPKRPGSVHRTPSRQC
Experiment: FLIPR intracellular calcium assay for modulator activity at the muscarinic M1 receptor in CHO human M1 cells
Format: cell-based
Experimental: The assay study the effect of several concentrations of test compounds on basal or acetylcholine-stimulated Ca^2+ levels using FLIPR.
The cell plate and the diluted compounds (1% DMSO final concentration) are placed on the platform of the FLIPR and the door closed. A signal test to check background fluorescence and basal fluorescence signal is performed. Laser intensity is adjusted if necessary. Two minutes preincubation with the diluted test compounds is provide to determine any agonist activity on the M1 receptor by comparison to 30 nM Acetylcholine control. In order to determine any modulator activity the diluted compounds were added to cells and after two minutes preincubation, the EC20 of acetylcholine is added followed by another two minutes preincubation before the measurement of intracellular Ca^2+ with a FLIPR (Molecular Devices).

[1] = CHO human M1, with EC20 of acetylcholine, FLIPR, read-out: IC50 value hM1 (converted)

| SMILES | IC50 [nM] | IC50 [1] [nM] |
| --- | --- | --- |
| S=C1Nc2ccc(Cl)cc2C(c2ccccc2)=N[C@@H]1Cc1ccccc1 (single isomer, unassigned) [Example 21] | 1140 | – |
| S=C1Nc2ccc(Cl)cc2C(c2ccccc2)=N[C@H]1Cc1ccccc1 (single isomer, unassigned) [Example 30] | 251 | – |
| CC(C)[C@@H]1N=C(c2ccc(F)cc2)c2cc(OC(F)(F)F)ccc2NC1=S [Example 1, (3S)-5-(4-fluorophenyl)-3-isopropyl-7-(trifluoromethoxy)-1,3-dihydro-1,4-benzodiazepine-2-thione] | – | 312 |
| CC(C)[C@@H]1N=C(c2ccccn2)c2cc(Br)ccc2NC1=S [Example 2, (3S)-7-bromo-3-propan-2-yl-5-pyridin-2-yl-1,3-dihydro-1,4-benzodiazepine-2-thione] | 289 | – |
| S=C1Nc2ccc(Cl)cc2C(c2ccccc2)=N[C@H]1CC1CC1 [Example 3, (3S)-7-chloro-3-(cyclopropylmethyl)-5-phenyl-1,3-dihydro-1,4-benzodiazepine-2-thione] | 311 | – |
| CC[C@@H]1N=C(c2ccccc2)c2cc(Cl)ccc2NC1=S [Example 4, (3S)-7-chloro-3-ethyl-5-phenyl-1,3-dihydro-1,4-benzodiazepine-2-thione] | 103 | – |
| CCC[C@]1(C)N=C(c2ccccc2)c2cc(Cl)ccc2NC1=S [Example 6, (3S)-7-chloro-3-methyl-5-phenyl-3-propyl-1H-1,4-benzodiazepine-2-thione] | 104 | – |
| CCC[C@@H]1N=C(c2ccccc2)c2cc(Cl)ccc2NC1=S [Example 7, (3S)-7-chloro-5-phenyl-3-propyl-1,3-dihydro-1,4-benzodiazepine-2-thione] | 187 | – |
| FC(F)(F)C[C@@H]1N=C(c2ccccc2)c2cc(Cl)ccc2NC1=S [Example 8, (3S)-7-chloro-5-phenyl-3-(2,2,2-trifluoroethyl)-1,3-dihydro-1,4-benzodiazepine-2-thione] | 238 | – |
| CSCC[C@H]1N=C(c2ccccc2)c2cc(Cl)ccc2NC1=S [Example 9, (3R)-7-chloro-3-(2-methylsulfanylethyl)-5-phenyl-1,3-dihydro-1,4-benzodiazepine-2-thione] | 504 | – |
| Fc1ccccc1C1=N[C@@H](C(F)(F)F)C(=S)Nc2ccc(Cl)cc21 [Example 10, (3S)-7-chloro-5-(2-fluorophenyl)-3-(trifluoromethyl)-1,3-dihydro-1,4-benzodiazepine-2-thione] | 610 | – |
| Fc1ccccc1C1=N[C@H](C(F)(F)F)C(=S)Nc2ccc(Cl)cc21 [Example 11, (3R)-7-chloro-5-(2-fluorophenyl)-3-(trifluoromethyl)-1,3-dihydro-1,4-benzodiazepine-2-thione] | 622 | – |
| CC1N=C(c2ccccc2)c2cc([N+](=O)[O-])ccc2NC1=S (stereo not shown) [Example 12, 3-methyl-7-nitro-5-phenyl-1,3-dihydro-1,4-benzodiazepine-2-thione] | 732 | – |
| Cc1ccc2c(c1)C(c1ccccc1F)=N[C@@H](C(C)C)C(=S)N2 [Example 13, (3S)-5-(2-fluorophenyl)-3-isopropyl-7-methyl-1,3-dihydro-1,4-benzodiazepine-2-thione] | 62 | – |
| CC(C)C1N=C(c2ccccc2)c2cc(Cl)ccc2NC1=S (stereo not shown) [Example 15, 7-chloro-3-isopropyl-5-phenyl-1,3-dihydro-1,4-benzodiazepine-2-thione] | 64 | – |
| CC(C)[C@@H]1N=C(c2ccccc2)c2cc(Cl)ccc2NC1=S [Example 16, (3S)-7-chloro-3-isopropyl-5-phenyl-1,3-dihydro-1,4-benzodiazepine-2-thione] | 70 | – |
| CCCC1=NCC(=S)Nc2ccc(Cl)cc21 [Example 17, 7-chloro-5-propyl-1,3-dihydro-1,4-benzodiazepine-2-thione] | – | 1280 |
| CC(C)[C@@H]1N=C(c2ccccc2)c2cc(C(F)(F)F)ccc2NC1=S [Example 18, (3S)-3-isopropyl-5-phenyl-7-(trifluoromethyl)-1,3-dihydro-1,4-benzodiazepine-2-thione] | 71 | – |
| CC(C)[C@@H]1N=C(c2ccccc2)c2cc(-c3ccccc3)ccc2NC1=S [Example 19, (3S)-3-isopropyl-5,7-diphenyl-1,3-dihydro-1,4-benzodiazepine-2-thione] | 1470 | – |
| FC(F)(F)c1ccc2c(c1)C(C1CCCCC1)=NCC(=S)N2 [Example 20, 5-cyclohexyl-7-(trifluoromethyl)-1,3-dihydro-1,4-benzodiazepine-2-thione] | 1950 | – |

| SMILES | IC50 [nM] | IC50 [1] [nM] |
| --- | --- | --- |
| CC(C)[C@@H]1N=C(c2cccc(Cl)c2)c2cc(Cl)ccc2NC1=S [Example 22, (3S)-7-chloro-5-(3-chlorophenyl)-3-isopropyl-1,3-dihydro-1,4-benzodiazepine-2-thione] | 172 | – |
| CC(C)[C@@H]1N=C(c2ccccc2F)c2ccc(Cl)cc2NC1=S [Example 23, (3S)-8-chloro-5-(2-fluorophenyl)-3-isopropyl-1,3-dihydro-1,4-benzodiazepine-2-thione] | 399 | – |
| S=C1Nc2ccc(Cl)cc2C(c2ccccc2)=N[C@H]1C1CC1 [Example 24, (3S)-7-chloro-3-cyclopropyl-5-phenyl-1,3-dihydro-1,4-benzodiazepine-2-thione] | 165 | – |
| CC(C)[C@@H]1N=C(c2ccccc2)c2cc(OC(F)(F)F)ccc2NC1=S [Example 25, (3S)-3-isopropyl-5-phenyl-7-(trifluoromethoxy)-1,3-dihydro-1,4-benzodiazepine-2-thione] | 232 | – |
| CC(C)(O)C1N=C(c2ccccc2)c2cc(Cl)ccc2NC1=S (stereo not shown) [Example 26, 7-chloro-3-(1-hydroxy-1-methyl-ethyl)-5-phenyl-1,3-dihydro-1,4-benzodiazepine-2-thione] | 1850 | – |
| CC(C)C[C@@H]1N=C(c2ccccc2F)c2cc(Cl)ccc2NC1=S [Example 27, (3S)-7-Chloro-5-(2-fluorophenyl)-3-isobutyl-1,3-dihydro-1,4-benzodiazepine-2-thione] | 641 | – |
| S=C1Nc2ccccc2C(c2ccccc2)=NC1Cc1ccc(Cl)c(Cl)c1 (stereo not shown) [Example 28, 3-[(3,4-Dichlorophenyl)methyl]-5-phenyl-1,3-dihydro-1,4-benzodiazepine-2-thione] | 1670 | – |
| Fc1ccccc1C1=N[C@@H](c2ccccc2)C(=S)Nc2ccc(Cl)cc21 [Example 29, (3S)-7-Chloro-5-(2-fluorophenyl)-3-phenyl-1,3-dihydro-1,4-benzodiazepine-2-thione] | 1470 | – |
| S=C1Nc2ccc(Cl)cc2C(c2ccccc2)=NC1c1ccccc1 (stereo not shown) [Example 31, 7-chloro-3,5-diphenyl-1,3-dihydro-1,4-benzodiazepine-2-thione] | 799 | – |
| CC(C)[C@@H]1N=C(c2cccnc2)c2cc(Br)ccc2NC1=S [Example 32, (3S)-7-bromo-3-isopropyl-5-(3-pyridyl)-1,3-dihydro-1,4-benzodiazepine-2-thione] | 275 | – |
| CSCC[C@@H]1N=C(c2ccccc2)c2cc(Cl)ccc2NC1=S [Example 33, (3S)-7-chloro-3-(2-methylsulfanylethyl)-5-phenyl-1,3-dihydro-1,4-benzodiazepine-2-thione] | 1200 | – |
| CC(C)[C@H]1N=C(c2ccccc2F)c2cc(Cl)ccc2NC1=S [Example 34, (3R)-7-chloro-5-(2-fluorophenyl)-3-isopropyl-1,3-dihydro-1,4-benzodiazepine-2-thione] | 420 | – |
| CC(C)[C@H]1N=C(c2ccccc2)c2cc(Cl)ccc2NC1=S [Example 35, (3R)-7-chloro-3-isopropyl-5-phenyl-1,3-dihydro-1,4-benzodiazepine-2-thione] | 521 | – |
| CC(C)C[C@@H]1N=C(c2ccccc2)c2cc(Cl)ccc2NC1=S [Example 36, (S)-7-Chloro-3-isobutyl-5-phenyl-1,3-dihydro-benzo[e][1,4]diazepine-2-thione] | 317 | – |
| CCC1N=C(c2ccccc2F)c2cc(N)ccc2NC1=S (stereo not shown) [Example 37, 7-amino-3-ethyl-5-(2-fluorophenyl)-1,3-dihydro-1,4-benzodiazepine-2-thione] | 6060 | – |
| COC(C)C1N=C(c2ccccc2)c2cc(Cl)ccc2NC1=S (stereo not shown) [Example 38, 7-chloro-3-(1-methoxyethyl)-5-phenyl-1,3-dihydro-1,4-benzodiazepine-2-thione] | 354 | – |
| CC(C)[C@@H]1N=C(C2CCCCC2)c2cc(Cl)ccc2NC1=S [Example 39, (3S)-7-chloro-5-cyclohexyl-3-isopropyl-1,3-dihydro-1,4-benzodiazepine-2-thione] | – | 414 |
| COc1ccc2c(c1)C(c1ccccc1)=N[C@@H](C(C)C)C(=S)N2 [Example 40, (3S)-3-isopropyl-7-methoxy-5-phenyl-1,3-dihydro-1,4-benzodiazepine-2-thione] | 559 | – |
| CC1N=C(c2ccccc2)c2ccccc2NC1=S (stereo not shown) [Example 41, 3-methyl-5-phenyl-1,3-dihydro-1,4-benzodiazepine-2-thione] | 552 | – |
| CCC1CN(c2ccccc2)c2cc(Cl)ccc2NC1=S (stereo not shown) [Example 42] | 50 | – |
